Laboratory results reported in PubChem BioAssay (NCI).
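Compound exposure: 48 hours, 5 concentrations, 96-well plates. TGI: total growth inhibition.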

system: SF-295 CNS; assay: NCI anticancer screen, dose series, 48 h

| SMILES | TGI |
| --- | --- |
| COc1cccc(/C=N/n2c(C)n[nH]c2=O)c1 | > 100 µM |
| Cc1ccc(S(=O)(=O)NC(=O)N[C@@H](Cc2cnc[nH]2)C(=O)O)cc1 | > 100 µM |
| CC(=O)OCC1OC(n2c3c(cc(C#N)c2=S)CCCCC3)C(OC(C)=O)C(OC(C)=O)C1OC(C)=O (stereo not drawn) | > 100 µM |
| CCN1CCC(O)(/C=C/c2ccc(C)cc2C)C(C(=O)/C=C/c2ccc(C)cc2C)C1 (stereo not drawn) | 4.94 µM |
| S=C(Nc1ccc2c(c1)oc1ccccc12)c1cccnc1 | > 100 µM |
| Cc1cc(S(=O)(=O)Nc2nc3cc(-c4ccc(Cl)cc4)sc3c(=O)n2N)c(S)cc1Cl | > 100 µM |
| [N-]=[N+]=NC1=C(c2ccccn2)C(=O)c2cccc3cccc1c23 | > 100 µM |
| C=C([C@@]1(O)C[C@H]2[C@H](CCC2(OC)OC)[C@@H]2c3ccccc3O[C@@H]21)[Si](C)(C)C | > 100 µM |
| O=C(O)c1ccc(OCc2nc3cc(C(F)(F)F)ccc3nc2-c2ccccc2)cc1 | > 100 µM |
| COc1ccc2c(c1)CCN1CCc3ccccc3CC21 (stereo not drawn) | 56.1 µM |
| COc1ccc(/C=C2\N=C(SC)NC2=O)cc1 | > 100 µM |
| Nc1ccc(C(=O)N2CCC[C@H]2CO)c(N)c1 | > 100 µM |
| O=c1oc2ccc([N+](=O)[O-])cc2c(Nc2ccc3c(c2)Oc2ccccc2O3)c1[N+](=O)[O-] | > 100 µM |
| CC1=C(CO)C(=O)O[C@@H]([C@@H](CO)[C@H]2CCC3C4C[C@@H](O)[C@@]5(O)CC=CC(=O)[C@]5(C)C4CC[C@@]32C)C1 (stereo partly drawn) | > 100 µM |
| Cn1c2ccccc2c(=O)c2cccc(C(=O)NC(CCCN=C(N)N)C(=O)O)c21 (stereo not drawn) | > 100 µM |
| O=C(O)/C=c1/c2ccccc2n2nc3ccccc3c12 | > 100 µM |
| O=C1c2ccccc2C2(c3ccc(Cl)cc3)N[C@H]3CCCC[C@@H]3N12 (stereo partly drawn) | > 100 µM |

system: SK-MEL-28 melanoma; assay: NCI anticancer screen, dose series, 48 h

| SMILES | TGI |
| --- | --- |
| C=C1C(=O)C=C[C@]2(C)CC[C@H]3C(=C)C(=O)O[C@@H]3[C@@H]12 | 4.04 µM |
| CC12CCC(O)CC1CCC1C2CCC2(C)C(C(=O)CC(O)C(F)(F)F)CCC12 (stereo not drawn) | > 100 µM |
| CC(C)(C)OC(=O)NCCCNC1(c2cc3ccccc3s2)CCCCC1 | 29.9 µM |
| CC(C)(C)C(=O)CC1=Nc2ccccc2SC1(O)CC(=O)C(C)(C)C (stereo not drawn) | 66 µM |
| N#CC1=C(N)N(c2ccccc2)C(c2ccccc2)C1(C#N)C#N (stereo not drawn) | 31.1 µM |
| C=CCOc1ccc(C2(O)c3ccccc3C3=NCCCN32)cc1 (stereo not drawn) | 59.3 µM |
| O=C1/C(=C/c2ccc(Cl)cc2)CSc2ccccc21 | 44.1 µM |
| CCC/C(Cl)=N\OC(=O)Nc1ccc(OC(F)(F)F)cc1 | 41.9 µM |
| COc1cccc(/C=N/n2c(C)n[nH]c2=O)c1 | > 100 µM |
| Cc1ccc(S(=O)(=O)NC(=O)N[C@@H](Cc2cnc[nH]2)C(=O)O)cc1 | > 100 µM |
| CC(=O)OCC1OC(n2c3c(cc(C#N)c2=S)CCCCC3)C(OC(C)=O)C(OC(C)=O)C1OC(C)=O (stereo not drawn) | > 100 µM |
| CCN1CCC(O)(/C=C/c2ccc(C)cc2C)C(C(=O)/C=C/c2ccc(C)cc2C)C1 (stereo not drawn) | 10.9 µM |
| S=C(Nc1ccc2c(c1)oc1ccccc12)c1cccnc1 | > 100 µM |
| Cc1cc(S(=O)(=O)Nc2nc3cc(-c4ccc(Cl)cc4)sc3c(=O)n2N)c(S)cc1Cl | > 100 µM |
| [N-]=[N+]=NC1=C(c2ccccn2)C(=O)c2cccc3cccc1c23 | > 100 µM |
| C=C([C@@]1(O)C[C@H]2[C@H](CCC2(OC)OC)[C@@H]2c3ccccc3O[C@@H]21)[Si](C)(C)C | > 100 µM |
| O=C(O)c1ccc(OCc2nc3cc(C(F)(F)F)ccc3nc2-c2ccccc2)cc1 | > 100 µM |
| COc1ccc2c(c1)CCN1CCc3ccccc3CC21 (stereo not drawn) | 98.5 µM |
| CN(C)c1ccc(C2SCC(=O)N2c2ccc(Oc3ccc(Cl)cc3)c(Cl)c2)cc1 (stereo not drawn) | > 100 µM |
| COc1ccc(/C=C2\N=C(SC)NC2=O)cc1 | > 100 µM |
| Nc1ccc(C(=O)N2CCC[C@H]2CO)c(N)c1 | > 100 µM |
| O=c1oc2ccc([N+](=O)[O-])cc2c(Nc2ccc3c(c2)Oc2ccccc2O3)c1[N+](=O)[O-] | > 100 µM |
| Cn1c2ccccc2c(=O)c2cccc(C(=O)NC(CCCN=C(N)N)C(=O)O)c21 (stereo not drawn) | > 100 µM |
| O=C(O)/C=c1/c2ccccc2n2nc3ccccc3c12 | > 100 µM |
| O=C1c2ccccc2C2(c3ccc(Cl)cc3)N[C@H]3CCCC[C@@H]3N12 (stereo partly drawn) | > 100 µM |

system: SN12C renal; assay: NCI anticancer screen, dose series, 48 h

| SMILES | TGI |
| --- | --- |
| C=C1C(=O)C=C[C@]2(C)CC[C@H]3C(=C)C(=O)O[C@@H]3[C@@H]12 | 7.49 µM |
| CC12CCC(O)CC1CCC1C2CCC2(C)C(C(=O)CC(O)C(F)(F)F)CCC12 (stereo not drawn) | > 100 µM |
| CC(C)(C)OC(=O)NCCCNC1(c2cc3ccccc3s2)CCCCC1 | 30.5 µM |
| CC(C)(C)C(=O)CC1=Nc2ccccc2SC1(O)CC(=O)C(C)(C)C (stereo not drawn) | 73.2 µM |
| N#CC1=C(N)N(c2ccccc2)C(c2ccccc2)C1(C#N)C#N (stereo not drawn) | 36.6 µM |
| C=CCOc1ccc(C2(O)c3ccccc3C3=NCCCN32)cc1 (stereo not drawn) | > 100 µM |
| O=C1/C(=C/c2ccc(Cl)cc2)CSc2ccccc21 | 43.4 µM |
| CCC/C(Cl)=N\OC(=O)Nc1ccc(OC(F)(F)F)cc1 | 21.1 µM |
| COc1cccc(/C=N/n2c(C)n[nH]c2=O)c1 | > 100 µM |
| Cc1ccc(S(=O)(=O)NC(=O)N[C@@H](Cc2cnc[nH]2)C(=O)O)cc1 | > 100 µM |
| CC(=O)OCC1OC(n2c3c(cc(C#N)c2=S)CCCCC3)C(OC(C)=O)C(OC(C)=O)C1OC(C)=O (stereo not drawn) | > 100 µM |
| CCN1CCC(O)(/C=C/c2ccc(C)cc2C)C(C(=O)/C=C/c2ccc(C)cc2C)C1 (stereo not drawn) | 7.04 µM |
| S=C(Nc1ccc2c(c1)oc1ccccc12)c1cccnc1 | > 100 µM |
| Cc1cc(S(=O)(=O)Nc2nc3cc(-c4ccc(Cl)cc4)sc3c(=O)n2N)c(S)cc1Cl | > 100 µM |
| [N-]=[N+]=NC1=C(c2ccccn2)C(=O)c2cccc3cccc1c23 | > 100 µM |
| C=C([C@@]1(O)C[C@H]2[C@H](CCC2(OC)OC)[C@@H]2c3ccccc3O[C@@H]21)[Si](C)(C)C | > 100 µM |
